What all share (format): in vivo
For experiment [1], the system named is foxtail. The experiment in a line: Herbicidal activity by field soil treatment (Test example 2). Conditions: 1000 g effective component per hectare, day 21 after the treatment. In a few lines: (§1)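 Herbicidal effect is rated by fixed criteria on day 21 post-treatment. Before that, pots of field soil holding freshly sown, soil-covered seeds receive a surface spray of diluted wettable powder (1000 g per hectare effective component, spray volume 1000 liters per hectare) and are kept in a greenhouse.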

Experiment [2] concerns Echinochloa crus-galli. Description: Herbicidal activity by field foliage treatment (Test example 3). The settings on record: 1000 g effective component per hectare, day 14 after the treatment. Set-up: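 index 0 to 10 in 10% steps of herbicidal effect with 10 meaning complete death and 0 below 10%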. In a few lines:
(§2)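 Potted field-soil plants grown 2 weeks in a greenhouse were sprayed over the whole foliage with diluted wettable powder at 1000 L/ha, delivering 1000 g active ingredient per hectare. Herbicidal effect scored by visual criteria 14 days after treatment.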

For experiment [3], the system named is A. retroflexus. The experiment is described as above. Set-up: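 index 0 to 10 in 10% steps of herbicidal effect with 10 meaning complete death and 0 below 10%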. The settings on record: 1000 g effective component per hectare, day 14 after the treatment. In outline:
(§3)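 Herbicidal effect is rated on a scoring scale 14 days after treatment. Seedlings raised 2 weeks in field soil under glass receive an overall foliar spray of wettable powder diluted in water, giving 1000 g active component per hectare.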

The test system of experiment [4] is Indian millet. The description is as above. Set-up: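 index 0 to 10 in 10% steps of herbicidal effect with 10 meaning complete death and 0 below 10%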. Conditions: 1000 g effective component per hectare, day 14 after the treatment. In a few lines: as §3
Experiment [5] has as its system Setaria viridis. Described as above. Conditions: 1000 g effective component per hectare, day 14 after the treatment. In outline:
as §2

Experiment [6] concerns Echinochloa crus-galli. Description: Herbicidal activity by field soil treatment (Test example 2). Set-up: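 index 0 to 10 in 10% steps of herbicidal effect with 10 meaning complete death and 0 below 10%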. Conditions: 1000 g effective component per hectare, day 21 after the treatment. In a few lines:
as §1

In experiment [7] the test system is A. retroflexus. The experiment is described as above. The settings on record: 1000 g effective component per hectare, day 21 after the treatment. Set-up: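 index 0 to 10 in 10% steps of herbicidal effect with 10 meaning complete death and 0 below 10%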. In outline:
as §1

Experiment [8] relates to Indian millet. The experiment is described as above. Set-up: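 index 0 to 10 in 10% steps of herbicidal effect with 10 meaning complete death and 0 below 10%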. The settings on record: 1000 g effective component per hectare, day 21 after the treatment. In a few lines:
as §1

Experiment [9] has as its system Scirpus juncoides Rocxb. Description: Herbicidal activity by paddy field soil treatment (Test Example 1). Conditions: applied on water surface, 1000 g of effective component per hectare, day 21 after the treatment. Set-up: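 index 0 to 10 in 10% steps of herbicidal effect with 10 meaning complete death and 0 below 10%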. In outline:
(§4)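 Herbicidal effect is rated on a graded scale 21 days after treatment. Treatment: wettable powder diluted in water, applied onto the flood water (3 cm deep) of sown paddy-soil pots on the day after sowing, 1000 g active component per hectare, greenhouse cultivation.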

For experiment [10], the system named is Monochoria vaginalis. The description is as above. Set-up: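 index 0 to 10 in 10% steps of herbicidal effect with 10 meaning complete death and 0 below 10%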. The settings on record: 1000 g of effective component per hectare, evaluated on day 21 after the treatment, criteria of Table 72. In a few lines: as §4
Experiment [11] relates to Echinochloa oryzicola. Described as above. The settings on record: 1000 g of effective component per hectare, evaluated on day 21 after the treatment, criteria of Table 72. Set-up: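 index 0 to 10 in 10% steps of herbicidal effect with 10 meaning complete death and 0 below 10%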. In outline: as §4
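Wherever herbicidal effect index, Setaria viridis is given: index 0 to 10 in 10% steps of herbicidal effect with 10 meaning complete death and 0 below 10%.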

Turning to `Cn1nc(C(=O)C2=C(O)CCCC2=O)c(=O)n(-c2ccc(C#N)cc2)c1=O` [I-74], the results for the “herbicidal effect index, Setaria viridis” value in [1] and in experiment [5] were 7 and 9, respectively. Also, the “herbicidal effect index, Echinochloa crus-galli” value in [2] stood at 9; in experiment [6], 10. Moreover, the “herbicidal effect index, Amaranthus retroflexus” value in experiment [3] and in [7] was 10 in each case. Besides, the “herbicidal effect index, Abutilon theophrasti” value is given as 9 in experiment [4] and 10 in experiment [8]. Besides, in experiment [9], the “herbicidal effect index, S. juncoides Rocxb.” value came out at 10. The “Herbicidal effects index number, Monochoria vaginalis” value in experiment [10] was found to be 10. Further, in experiment [11], the “Herbicidal effects index number, Echinochloa oryzicola” value is listed as 10.
Consider `Cc1ccc(F)c(-n2c(=O)c(C(=O)C3=C(O)CCCC3=O)nn(C)c2=O)c1` [I-109], for which the “herbicidal effect index, Setaria viridis” value was determined as 6 in experiment [1] and 7 in experiment [5]. In addition, the “herbicidal effect index, Echinochloa crus-galli” value is recorded as 10 in [2] and 9 in experiment [6]. The “herbicidal effect index, Amaranthus retroflexus” value in [3] turned out to be 9; in experiment [7] it was 10. The “herbicidal effect index, Abutilon theophrasti” value in [4] was determined as 9; in experiment [8] it was 10. For the same compound, the “herbicidal effect index, S. juncoides Rocxb.” value in [9] is 10. Further, in experiment [10], the “Herbicidal effects index number, Monochoria vaginalis” value was determined as 10. Besides, the “Herbicidal effects index number, Echinochloa oryzicola” value in experiment [11] is recorded as 10.
`Cn1nc(C(=O)C2=C(O)CCCC2=O)c(=O)n(-c2cccc([N+](=O)[O-])c2)c1=O` [I-67]: the “herbicidal effect index, Setaria viridis” value in experiment [1] and in experiment [5] was 10 each time. The “herbicidal effect index, Echinochloa crus-galli” value in experiment [2] and in [6] was 10 each time. For the same compound, the “herbicidal effect index, Amaranthus retroflexus” value in [3] and in experiment [7] was 10 each time. In addition, the “herbicidal effect index, Abutilon theophrasti” value in experiment [4] and in experiment [8] was 10 throughout. For the same compound, the “herbicidal effect index, S. juncoides Rocxb.” value in [9] amounted to 10. Further, the “Herbicidal effects index number, Monochoria vaginalis” value in [10] was 10. Further, in [11], the “Herbicidal effects index number, Echinochloa oryzicola” value was found to be 10.
In the case of `Cn1nc(C(=O)C2=C(O)CCCC2=O)c(=O)n(C2C=CCCC2)c1=O` (stereo not drawn) [I-303], the entries for the “herbicidal effect index, Setaria viridis” value in [1] and in experiment [5] were 9 and 10, respectively. Moreover, the “herbicidal effect index, Echinochloa crus-galli” value in experiment [2] is 8; in experiment [6], 9. Further, the “herbicidal effect index, Amaranthus retroflexus” value in [3] and in [7] was 10 throughout. For the same compound, the “herbicidal effect index, Abutilon theophrasti” value in experiment [4] and in experiment [8] was 9 throughout. For the same compound, in [9], the “herbicidal effect index, S. juncoides Rocxb.” value is 10. In addition, in experiment [10], the “Herbicidal effects index number, Monochoria vaginalis” value was 10. The “Herbicidal effects index number, Echinochloa oryzicola” value in [11] was determined as 10.
Turning to `COc1cc(-n2c(=O)c(C(=O)C3=C(O)CCCC3=O)nn(C)c2=O)c(F)cc1Cl` [I-297], the “herbicidal effect index, Setaria viridis” value in experiment [1] and in experiment [5] was 9 in each case. In addition, the “herbicidal effect index, Echinochloa crus-galli” value in [2] worked out at 9; in experiment [6] it was 10. Also, the results for the “herbicidal effect index, Amaranthus retroflexus” value in experiment [3] and in [7] were 8 and 10, respectively. The “herbicidal effect index, Abutilon theophrasti” value in experiment [4] stood at 8; in experiment [8] it was 9. Moreover, the “herbicidal effect index, S. juncoides Rocxb.” value in experiment [9] is recorded as 10. Moreover, in [10], the “Herbicidal effects index number, Monochoria vaginalis” value is reported as 10. For the same compound, in experiment [11], the “Herbicidal effects index number, Echinochloa oryzicola” value is 10.
For the compound `Cc1cc(F)ccc1-n1c(=O)c(C(=O)C2=C(O)CCCC2=O)nn(C)c1=O` [I-117], the “herbicidal effect index, Setaria viridis” value in experiment [1] is recorded as 7; in experiment [5], 9. Moreover, the “herbicidal effect index, Echinochloa crus-galli” value in experiment [2] was 9; in experiment [6], 10. The “herbicidal effect index, Amaranthus retroflexus” value is reported as 8 in [3] and 10 in experiment [7]. Besides, the entries for the “herbicidal effect index, Abutilon theophrasti” value in experiment [4] and in [8] were 9 and 10, respectively. For the same compound, the “herbicidal effect index, S. juncoides Rocxb.” value in [9] is 10. In addition, the “Herbicidal effects index number, Monochoria vaginalis” value in experiment [10] is on record as 10. Moreover, the “Herbicidal effects index number, Echinochloa oryzicola” value in [11] is reported as 10.
`CC1CC(C)(C)C(=O)C(C(=O)c2nn(C)c(=O)n(-c3ccccc3)c2=O)=C1O` (stereo not drawn) [VI-7]: the “herbicidal effect index, Setaria viridis” value in experiment [1] and in [5] was 10 in each case. In addition, the “herbicidal effect index, Echinochloa crus-galli” value in experiment [2] and in experiment [6] was 10 throughout. The “herbicidal effect index, Amaranthus retroflexus” value in experiment [3] and in [7] was 10 throughout. Further, the “herbicidal effect index, Abutilon theophrasti” value in experiment [4] and in experiment [8] was 10 each time. The “herbicidal effect index, S. juncoides Rocxb.” value in experiment [9] was 10. Besides, the “Herbicidal effects index number, Monochoria vaginalis” value in experiment [10] is reported as 10. Besides, in experiment [11], the “Herbicidal effects index number, Echinochloa oryzicola” value amounted to 10.
As to `Cn1nc(C(=O)C2=C(O)CCCC2=O)c(=O)n(-c2ccc(OC(F)(F)F)cc2)c1=O` [I-71], the results for the “herbicidal effect index, Setaria viridis” value in [1] and in experiment [5] were 6 and 9, respectively. The “herbicidal effect index, Echinochloa crus-galli” value in experiment [2] and in [6] was 10 in each case. In addition, the “herbicidal effect index, Amaranthus retroflexus” value in experiment [3] and in experiment [7] was 10 in each case. Moreover, the results for the “herbicidal effect index, Abutilon theophrasti” value in experiment [4] and in experiment [8] were 9 and 10, respectively. The “herbicidal effect index, S. juncoides Rocxb.” value in experiment [9] stood at 10. Moreover, the “Herbicidal effects index number, Monochoria vaginalis” value in experiment [10] is 10. In addition, in experiment [11], the “Herbicidal effects index number, Echinochloa oryzicola” value is 10.
With `Cn1nc(C(=O)C2=C(O)CCCC2=O)c(=O)n(-c2ccccc2Cl)c1=O` [I-51], the “herbicidal effect index, Setaria viridis” value in experiment [1] and in experiment [5] was 10 each time. Also, the “herbicidal effect index, Echinochloa crus-galli” value in [2] and in experiment [6] was 10 throughout. In addition, the “herbicidal effect index, Amaranthus retroflexus” value in experiment [3] and in experiment [7] was 10 each time. For the same compound, the “herbicidal effect index, Abutilon theophrasti” value in experiment [4] and in [8] was 10 throughout. Also, in experiment [9], the “herbicidal effect index, S. juncoides Rocxb.” value amounted to 10. Moreover, the “Herbicidal effects index number, Monochoria vaginalis” value in [10] is reported as 10. Moreover, the “Herbicidal effects index number, Echinochloa oryzicola” value in experiment [11] came to 10.
`Cn1nc(C(=O)C2=C(O)CCCC2=O)c(=O)n(C)c1=O` [I-1]: the “herbicidal effect index, Setaria viridis” value in experiment [1] is on record as 7; in [5], 8. The “herbicidal effect index, Echinochloa crus-galli” value in experiment [2] and in experiment [6] was 8 throughout. In addition, the “herbicidal effect index, Amaranthus retroflexus” value in [3] and in experiment [7] was 10 in each case. For the same compound, the “herbicidal effect index, Abutilon theophrasti” value in experiment [4] and in experiment [8] was 9 throughout. Further, the “herbicidal effect index, S. juncoides Rocxb.” value in [9] is reported as 10. Moreover, the “Herbicidal effects index number, Monochoria vaginalis” value in experiment [10] is 10. Further, the “Herbicidal effects index number, Echinochloa oryzicola” value in experiment [11] stood at 10.
Regarding `Cc1c(F)cccc1-n1c(=O)c(C(=O)C2=C(O)CCCC2=O)nn(C)c1=O` [I-116], the “herbicidal effect index, Setaria viridis” value in [1] and in [5] was 9 in each case. Also, the figures for the “herbicidal effect index, Echinochloa crus-galli” value in experiment [2] and in experiment [6] were 9 and 10, respectively. The “herbicidal effect index, Amaranthus retroflexus” value came to 8 in [3] and 10 in experiment [7]. Besides, the “herbicidal effect index, Abutilon theophrasti” value in [4] turned out to be 9; in experiment [8], 10. Also, in experiment [9], the “herbicidal effect index, S. juncoides Rocxb.” value turned out to be 10. Also, the “Herbicidal effects index number, Monochoria vaginalis” value in [10] turned out to be 10. The “Herbicidal effects index number, Echinochloa oryzicola” value in [11] came out at 10.
Turning to `Cn1nc(C(=O)C2=C(O)CCCC2=O)c(=O)n(-c2ccc(Cl)cc2Cl)c1=O` [I-84], the “herbicidal effect index, Setaria viridis” value is listed as 9 in experiment [1] and 10 in experiment [5]. The “herbicidal effect index, Echinochloa crus-galli” value in experiment [2] and in experiment [6] was 9 in each case. In addition, the “herbicidal effect index, Amaranthus retroflexus” value in [3] and in experiment [7] was 10 each time. Moreover, the “herbicidal effect index, Abutilon theophrasti” value in experiment [4] and in experiment [8] was 10 throughout. Further, in experiment [9], the “herbicidal effect index, S. juncoides Rocxb.” value was determined as 10. Moreover, in experiment [10], the “Herbicidal effects index number, Monochoria vaginalis” value is on record as 10. Further, the “Herbicidal effects index number, Echinochloa oryzicola” value in experiment [11] is on record as 10.
